{
  "source": "patent US20180000727A1",
  "about": "“COMPOSITION AND METHODS TO IMPROVE STABILITY, DOSING, PHARMA[…] PRODUCT SHELF LIFE OF ENDOCANNABINOIDS, PHYTOCANNABINOIDS AND […] CA[…] BY NASAL INHAER” (priority 2015, published 2018)",
  "key": {"[1]": {"conditions": "intranasally at 1.0 to 1.3 mg/kg in rats; cited from earlier work"}, "[2]": {"conditions": "oral administration; cited from earlier work"}, "[3]": {"assay": "Twelve months storage, THC degradation to Cannabinol by gas chromatography", "conditions": "twelve months storage at −10 °C in darkness, 5 ml screw top bottles", "from_the_text": "Extract was concentrated by vacuum evaporation and percent of THC degradation quantitated by gas chromatograpy."}},
  "data": [
    {"smiles": "CCCCCc1cc(O)c2c(c1)OC(C)(C)[C@@H]1CCC(C)=C[C@@H]21", "note": "[THC, Delta-9-tetrahydrocannabinol]", "values": [
      {"measurement": "analgesic response, time post administration", "setting": "[1]", "result": 15, "unit": "min"},
      {"measurement": "duration of analgesic response", "setting": "[1]", "result": 120, "unit": "min"},
      {"measurement": "oral dose reaching the circulation unchanged", "setting": "[2]", "result": 10, "unit": "%"},
      {"measurement": "percent degraded to Cannabinol", "setting": "[3]", "result": 22.6, "unit": "%"}
    ]}
  ]
}
